Data set [1] deals with mouse P-388 leukemia. The experiment in a line: Antitumor effect to mouse P-388 leukemia (ILS). It is filed as in vivo. The conditions noted are these: 5 mg/kg, intraperitoneal, once a day for 5 days, P-388 in CDF1 mice. Here is the method: Antitumor effects of the products to mouse P-388 leukemia were tested.
(§1) P-388 ascites cells obtained by a successive cultivation in DBA/2 mice were transplanted by the route of intraperitoneal injection into CDF1 mice (10 mice in one group) at a rate of 1×10^6 /mouse. From 24 hours after the transplantation, a solution of each compound in physiological saline solution was injected once a day for 5 days as 5 times by the route of intraperitoneal injection. Each average survival days (T) of the administered group and each average survival days (C) of control group were measured to calculate each percentage increase in life span (ILS(%))

Data set [2] is described as follows: Weight decrease and kidney cell damage in the mice of the P-388 test. To be noted: 5 mg/kg intraperitoneal for 5 days. The class given is in vivo, CDF1 mice. As for the experimental part: as §1
Data set [3] can be described thus: Solubility of the products of the Examples in water and organic solvents. The class given is physicochemical.

For the molecule `N.N.[Cl][Pt][Cl]` [Compound No. 5, cis-[diaminedichloroplatinum (II)]], the “ILS (percentage increase in life span, T/C×100)” value in data set [1] was 180%. Further, in data set [2], the kidney cell damage entry is “kidney cell damage were observed for all of 10 mice” and the weight decrease entry was “remarkable weight decrease”.
With `COC(=O)C(N)C(N)C(=O)OC` (stereo not shown) [Example 1], the “solubility in benzene and chloroform” value in data set [3] (benzene and chloroform) was “insoluble”. Also, in data set [3] (ethanol), the solubility in ethanol result was “soluble”. Further, the solubility in methanol entry in data set [3] (methanol) is recorded as “soluble”. Further, in data set [3] (water), the solubility in water entry is given as “soluble”.

Values taken from patent US4372890A, “Platinum compound” (Kureha Kagaku Kogyo Kabushiki Kaisha, priority 1980, dated 1983).
